PubChem BioAssay (NCI)
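How tested: cells in 96-well plates exposed to compound for 48 hours at five concentrations. At the GI50, growth is halved. Definition used: TGI = concentration required for complete inhibition of growth.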

Key:
Assay in all cases: inhibition of tumour cell growth, NCI panel, 48 h
OVCAR-4 ovarian = tested on: OVCAR-4 ovarian
HS 578T breast = tested on: HS 578T breast
SF-295 CNS = tested on: SF-295 CNS
EKVX NSCLC = tested on: EKVX NSCLC
PC-3 prostate = tested on: PC-3 prostate
UACC-257 melanoma = tested on: UACC-257 melanoma
NCI/ADR-RES ovarian = tested on: NCI/ADR-RES ovarian
HT29 colon = tested on: HT29 colon
NCI-H460 lung = tested on: NCI-H460 lung
A549 NSCLC = tested on: A549 NSCLC
CCRF-CEM leukemia = tested on: CCRF-CEM leukemia
RXF 393 renal = tested on: RXF 393 renal
ACHN renal = tested on: ACHN renal
T-47D breast = tested on: T-47D breast
UO-31 renal = tested on: UO-31 renal
CAKI-1 renal = tested on: CAKI-1 renal
A498 renal = tested on: A498 renal
M14 melanoma = tested on: M14 melanoma
SF-539 CNS = tested on: SF-539 CNS
NCI-H23 lung = tested on: NCI-H23 lung
RPMI-8226 leukemia = tested on: RPMI-8226 leukemia
K-562 leukemia = tested on: K-562 leukemia
SK-MEL-2 melanoma = tested on: SK-MEL-2 melanoma
KM12 colon = tested on: KM12 colon
TK-10 renal = tested on: TK-10 renal
786-0 renal = tested on: 786-0 renal
HCT-116 colon = tested on: HCT-116 colon
SK-MEL-5 melanoma = tested on: SK-MEL-5 melanoma
OVCAR-8 ovarian = tested on: OVCAR-8 ovarian
SW-620 colon = tested on: SW-620 colon
UACC-62 melanoma = tested on: UACC-62 melanoma
MALME-3M melanoma = tested on: MALME-3M melanoma
OVCAR-3 ovarian = tested on: OVCAR-3 ovarian
NCI-H522 lung = tested on: NCI-H522 lung
SF-268 CNS = tested on: SF-268 CNS
SNB-75 CNS = tested on: SNB-75 CNS
LOX IMVI melanoma = tested on: LOX IMVI melanoma
SK-MEL-28 melanoma = tested on: SK-MEL-28 melanoma
SK-OV-3 ovarian = tested on: SK-OV-3 ovarian
COLO 205 colon = tested on: COLO 205 colon
OVCAR-5 ovarian = tested on: OVCAR-5 ovarian
SNB-19 CNS = tested on: SNB-19 CNS
IGROV1 ovarian = tested on: IGROV1 ovarian
MOLT-4 leukemia = tested on: MOLT-4 leukemia
HOP-62 NSCLC = tested on: HOP-62 NSCLC
MDA-MB-231 breast = tested on: MDA-MB-231 breast
SN12C renal = tested on: SN12C renal
BT-549 breast = tested on: BT-549 breast
NCI-H226 lung = tested on: NCI-H226 lung
HCT-15 colon = tested on: HCT-15 colon
HL-60(TB) leukemia = tested on: HL-60(TB) leukemia
DU-145 prostate = tested on: DU-145 prostate
U251 CNS = tested on: U251 CNS
MDA-MB-435 = tested on: MDA-MB-435
MCF7 breast = tested on: MCF7 breast

COc1cccc(N2C(=N)/C(=C3\Nc4ccccc4S3)CC2=O)c1
GI50 (OVCAR-4 ovarian): 12.1 µM
TGI (OVCAR-4 ovarian): 71.9 µM
GI50 (HS 578T breast): 27.5 µM
TGI (HS 578T breast): > 100 µM
GI50 (SF-295 CNS): 1640 nM
TGI (SF-295 CNS): 8.1 µM
GI50 (EKVX NSCLC): > 100 µM
TGI (EKVX NSCLC): > 100 µM
GI50 (PC-3 prostate): 3.03 µM
TGI (PC-3 prostate): > 100 µM
GI50 (UACC-257 melanoma): > 100 µM
TGI (UACC-257 melanoma): > 100 µM
GI50 (NCI/ADR-RES ovarian): 15.8 µM
TGI (NCI/ADR-RES ovarian): > 100 µM
GI50 (HT29 colon): 3.34 µM
TGI (HT29 colon): > 100 µM
GI50 (NCI-H460 lung): 2890 nM
TGI (NCI-H460 lung): 26.3 µM
GI50 (A549 NSCLC): 5.49 µM
TGI (A549 NSCLC): > 100 µM
GI50 (CCRF-CEM leukemia): 1910 nM
TGI (CCRF-CEM leukemia): > 100 µM
GI50 (RXF 393 renal): 2610 nM
TGI (RXF 393 renal): 11.1 µM
GI50 (ACHN renal): 4.93 µM
TGI (ACHN renal): > 100 µM
GI50 (T-47D breast): 18.9 µM
TGI (T-47D breast): > 100 µM
GI50 (UO-31 renal): 4.1 µM
TGI (UO-31 renal): > 100 µM
GI50 (CAKI-1 renal): 8.21 µM
TGI (CAKI-1 renal): > 100 µM
GI50 (A498 renal): 2020 nM
TGI (A498 renal): 80 µM
GI50 (M14 melanoma): > 100 µM
TGI (M14 melanoma): > 100 µM
GI50 (SF-539 CNS): 5.4 µM
TGI (SF-539 CNS): > 100 µM
GI50 (NCI-H23 lung): 39.4 µM
TGI (NCI-H23 lung): > 100 µM
GI50 (RPMI-8226 leukemia): 2730 nM
TGI (RPMI-8226 leukemia): > 100 µM
GI50 (K-562 leukemia): 3.92 µM
TGI (K-562 leukemia): > 100 µM
GI50 (SK-MEL-2 melanoma): 48.4 µM
TGI (SK-MEL-2 melanoma): > 100 µM
GI50 (KM12 colon): 7.48 µM
TGI (KM12 colon): > 100 µM
GI50 (TK-10 renal): 17.8 µM
TGI (TK-10 renal): > 100 µM
GI50 (786-0 renal): 4.91 µM
TGI (786-0 renal): > 100 µM
GI50 (HCT-116 colon): 6.22 µM
TGI (HCT-116 colon): > 100 µM
GI50 (SK-MEL-5 melanoma): 7.78 µM
TGI (SK-MEL-5 melanoma): > 100 µM
GI50 (OVCAR-8 ovarian): 7.9 µM
TGI (OVCAR-8 ovarian): > 100 µM
GI50 (SW-620 colon): 4.87 µM
TGI (SW-620 colon): > 100 µM
GI50 (UACC-62 melanoma): > 100 µM
TGI (UACC-62 melanoma): > 100 µM
GI50 (MALME-3M melanoma): > 100 µM
TGI (MALME-3M melanoma): > 100 µM
GI50 (OVCAR-3 ovarian): 14.8 µM
TGI (OVCAR-3 ovarian): > 100 µM
GI50 (NCI-H522 lung): 8.22 µM
TGI (NCI-H522 lung): > 100 µM
GI50 (SF-268 CNS): 5.22 µM
TGI (SF-268 CNS): > 100 µM
GI50 (SNB-75 CNS): 10.3 µM
TGI (SNB-75 CNS): 57.3 µM
GI50 (LOX IMVI melanoma): 3.21 µM
TGI (LOX IMVI melanoma): > 100 µM
GI50 (SK-MEL-28 melanoma): > 100 µM
TGI (SK-MEL-28 melanoma): > 100 µM
GI50 (SK-OV-3 ovarian): 1770 nM
TGI (SK-OV-3 ovarian): > 100 µM
GI50 (COLO 205 colon): 9.25 µM
TGI (COLO 205 colon): > 100 µM
GI50 (OVCAR-5 ovarian): > 100 µM
TGI (OVCAR-5 ovarian): > 100 µM
GI50 (SNB-19 CNS): 18.9 µM
TGI (SNB-19 CNS): > 100 µM
GI50 (IGROV1 ovarian): 7.58 µM
TGI (IGROV1 ovarian): > 100 µM
GI50 (MOLT-4 leukemia): 2400 nM
TGI (MOLT-4 leukemia): > 100 µM
GI50 (HOP-62 NSCLC): 2730 nM
TGI (HOP-62 NSCLC): 28.1 µM
GI50 (MDA-MB-231 breast): 51.1 µM
TGI (MDA-MB-231 breast): > 100 µM
GI50 (SN12C renal): > 100 µM
TGI (SN12C renal): > 100 µM
GI50 (BT-549 breast): 44.9 µM
TGI (BT-549 breast): > 100 µM
GI50 (NCI-H226 lung): 38.3 µM
TGI (NCI-H226 lung): > 100 µM
GI50 (HCT-15 colon): 815 nM
TGI (HCT-15 colon): > 100 µM
GI50 (HL-60(TB) leukemia): 4.85 µM
TGI (HL-60(TB) leukemia): > 100 µM
GI50 (DU-145 prostate): 44.3 µM
TGI (DU-145 prostate): > 100 µM
GI50 (U251 CNS): 3.89 µM
TGI (U251 CNS): > 100 µM
GI50 (MDA-MB-435): > 100 µM
TGI (MDA-MB-435): > 100 µM
GI50 (MCF7 breast): 6.65 µM
TGI (MCF7 breast): > 100 µM
